From US20110166132A1, “Gamma Secretase Modulators” (Amgen Inc., priority 2007, published 2011)

Target: T1, gamma secretase (Homo sapiens, UniProt P49768)
T1 construct: HEK293 cells stably expressing full length Amyloid Precursor Protein (APP); endogenous in cells; host or cells: HEK 293 cells stably expressing full length APP
Experiment: GSM cell-based assay: Aβ 42 inhibition or reduction in HEK 293 cells over-expressing APP (sandwich ELISA)
Conditions: approximate IC50; HEK293 cells stably expressing full length APP, 24 hours incubation, 10-point dose response starting at 10 μM
Procedure, shortened: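 APP-overexpressing HEK293 cells treated 24 h with 10-point doses from 10 μM (0.1% DMSO). Aβ42 in conditioned medium measured by sandwich ELISA (RabMAb 42 capture, biotinylated 6E10 detection, Eu time-resolved fluorescence); CellTiter-Blue viability run in parallel. IC50 from percent of control versus concentration.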

SMILES	IC50 [µM]
Cc1cc(-c2ccc(NC(=O)c3cc4ccc(F)cc4s3)cc2)ccn1 [Cpd 314]	> 10
Cc1cc(-c2ccc(NC(=O)C(C)c3cccc(Br)c3)c(C#N)c2)ccn1 (stereo not drawn) [Cpd 161, 2-(3-bromophenyl)-N-(2-cyano-4-(2-methyl-4-pyridinyl)phenyl)propanamide]	> 10
Cc1cc(-c2ccc(NC(=O)c3cn4cc(Cl)ccc4n3)cc2)ccn1 [Cpd 300]	> 10
Cc1cc(-c2ccc(NC(=O)c3ccc4[nH]c5c(c4c3)CSCC5)cc2)ccn1 [Cpd 662]	5.1

More lines, in order of falling IC50, values ahead:

IC50 [µM]	SMILES
2.69	Cc1cc(-c2ccc(NC(=O)C3CCCc4ccccc43)cc2)ccn1 (stereo not drawn) [Cpd 322]
1.35	Cc1cccc(C(C(=O)Nc2ccc(-c3ccnc(C)c3)cc2)C(C)C)c1 (stereo not drawn) [Cpd 338, 3-methyl-2-(3-methylphenyl)-N-(4-(2-methyl-4-pyridinyl)phenyl)butanamide]
